Reference: publication PMC6156427, “Characterization of NGFFYamide Signaling in Starfish Reveals Roles in Regulation of Feeding Behavior and Locomotory Systems” (Frontiers in Endocrinology, 2018)
No end group written: not given here.

Tests used:
[1] = tested on: tube foot preparations from A. rubens; settings: ACh 10^−6 M; ref [54], [57]; cited from earlier work
Protocol: Here, NGFFYamide was tested in vitro to investigate its effect on apical muscle and tube foot preparations from A. rubens, using the same methods reported previously when testing other neuropeptides ([53], [54], [56]). Briefly, the apical muscle was dissected from the aboral body wall of starfish arms and cut into segments approximately 1 cm in length and cotton ligatures were tied at each end. […] Thus, application of NGFFYamide triggered phasic contractions of tube feet that were superimposed upon an increase in basal tone. Furthermore, there was concentration-dependency in the effect of NGFFYamide on both the amplitude and the frequency of the phasic contractions. This action of NGFFYamide on tube feet is interesting because it is the first neuropeptide that we have ...

[2] = tested on: apical muscle preparations from A. rubens; settings: ACh 10^−6 M; ref [54], [57]; cited from earlier work
Protocol: Investigation of the physiological roles of NG peptides in echinoderms was advanced most recently with the discovery of the precursor of the NG peptide NGFFYamide (NGFFY-NH2) in the starfish A. rubens. Research on neuropeptide systems in this species led to the discovery of the first echinoderm neuropeptides to be sequenced—the SALMFamide neuropeptides S1 and S2 ([45]). […] Here, NGFFYamide was tested in vitro to investigate its effect on apical muscle and tube foot preparations from A. rubens, using the same methods reported previously when testing other neuropeptides ([53], [54], [56]). Briefly, the apical muscle was dissected from the aboral body wall of starfish arms and cut into segments approximately 1 cm in length and cotton ligatures were tied at each end. […] Thus, NGFFYamide precursor-expressing cells are present in the coelomic lining of the apical muscle, a thickening of the longitudinally orientated body wall muscle layer located in an aboral and sagittal position in each arm.

[3] = tested on: NPS/CCAP-type receptor in the sea urchin S. purpuratus; settings: ref [8]; cited from earlier work
Source text: Evidence that NG peptides are orthologs of vertebrate NPS-type neuropeptides was provided by analysis of the sequence of the NG peptide precursor in the cephalochordate B. floridae, which comprises two copies of a peptide (SFRNGVG) that is identical to the N-terminal region of NPS ([…]) ([34]). However, definitive proof was provided with the discovery that an NPS/CCAP-type receptor in the sea urchin S. purpuratus is activated by the neuropeptide NGFFFamide ([8]). Thus, a bilaterian neuropeptide family comprising NPS in vertebrates, NG peptides in invertebrate deuterostomes and ...

[4] = tested on: esophagus preparations from the sea urchin E. esculentus; settings: Echinus esculentus; ref [35]; cited from earlier work
Source text: (§1) Having analyzed both the anatomical expression pattern and bioactivity of NGFFYamide in the starfish A. rubens, it is of interest to make comparisons with what is known about the physiological roles of NG peptides in other echinoderms. The first NG peptide to be identified in an echinoderm was NGIWYamide, which was isolated from the sea cucumber A. japonicus on account of its effect in causing contraction of longitudinal body wall muscles in this species ([42]).

[5] = tested on: tube foot preparations from the sea urchin E. esculentus; settings: Echinus esculentus; ref [35]; cited from earlier work
Source text: as §1

[6] = tested on: tube foot preparations from A. rubens; assay: in vitro pharmacology, tube foot preparations; design: species or system Asterias rubens; settings: read-out: half maximal response concentration (EC50), tonic contraction; tonic contraction of tube feet, 10^−9-10^−6 M; six measurements; 11°C; four-parameter curve
Protocol: Here, NGFFYamide was tested in vitro to investigate its effect on apical muscle and tube foot preparations from A. rubens, using the same methods reported previously when testing other neuropeptides ([53], [54], [56]). Briefly, the apical muscle was dissected from the aboral body wall of starfish arms and cut into segments approximately 1 cm in length and cotton ligatures were tied at each end. Tube foot preparations were obtained by dissecting from starfish arms a small square-shaped piece of ambulacral body wall containing a single tube foot podium and its associated ampullae. […] A relaxant effect of NGFFYamide on apical muscle preparations was expressed as a percentage reversal of the maximal contraction induced by 10^−6 M ACh. […] For phasic contractions, peak amplitude and frequency were quantified over a 5-min recording period and expressed as mean amplitude and mean peaks/minute, respectively. For in vitro characterization of the effects of NGFFYamide on tube foot preparations, a concentration-response curve was fitted with a four-parameter curve and the EC50 value was calculated based on six measurements. The in vitro effect of NGFFYamide on basal tone was analyzed by one-way ANOVA using Bonferroni's multiple comparisons post-hoc test. […]

[7] = tested on: tentacle preparations; settings: A. japonicus; ref [43]; cited from earlier work
Source text: as §1

[8] = tested on: oocyte maturation and spawning; settings: A. japonicus; ref [44]; cited from earlier work
Source text: as §1

[9] = tested on: body wall mutable collagenous tissue; settings: A. japonicus; ref [64]; cited from earlier work
Source text: as §1

[10] = tested on: intestine preparations; settings: A. japonicus; ref [43]; cited from earlier work
Source text: as §1

[11] = tested on: longitudinal body wall muscle; settings: A. japonicus; ref [43]; cited from earlier work
Source text: as §1

[12] = tested on: crustaceans; settings: ref [25]; cited from earlier work
Source text: (§2) Furthermore, there is substantial evidence that CCAP is one of several neuropeptides that regulate shedding of the exoskeleton (ecdysis) in arthropods. Thus, a dramatic increase in circulating levels of CCAP has been observed in two crustacean species during ecdysis ([26]).

[13] = tested on: gut; settings: cockroaches; ref [32], [83]; cited from earlier work
Source text: as §2

[14] = tested on: oviduct; settings: Locusta migratoria; ref [82]; cited from earlier work
Source text: as §2

[15] = tested on: moth Manduca sexta; settings: ref [28], [78], [79]; cited from earlier work
Source text: as §2

[16] = tested on: cockroach P. americana; settings: ref [33]; cited from earlier work
Source text: as §2

[17] = tested on: mammals; settings: ref [15], [18], [72]–[75]; cited from earlier work
Source text: (§3) Thus, nothing was known about its physiological roles when NPS was first identified. […] Furthermore, evidence that the anxiolytic effect ...

[18] = tested on: rats; settings: ref [9]; cited from earlier work
Source text: as §3

[19] = tested on: rodents; settings: ref [76]; cited from earlier work
Source text: as §3

[20] = tested on: "orphan" G-protein coupled receptor GPR154; settings: ref [65]; cited from earlier work
Source text: as §3

[21] = tested on: mice; settings: ref [9], cited from earlier work
Source text: as §3

## CC(=O)OCC[N+](C)(C)C [acetylcholine]
[1]
  contractant of starfish tube feet: known contractant
[2]
  contractant of starfish apical muscle: known contractant

## NGFFF-NH2 [NGFFFamide]
[3]
  activation of NPS/CCAP-type receptor: activated
[4]
  contraction of esophagus preparations: contraction
[5]
  contraction of tube foot preparations: contraction

## NGFFY-NH2 [NGFFYamide]
[6]
  EC50: 14 nM

## NGIWYamide
[7]
  contraction of tentacle preparations: tonic contraction
[8]
  oocyte maturation and spawning: induction of oocyte maturation and spawning
[9]
  effect on body wall mutable collagenous tissue: stiffening
[10]
  spontaneous phasic contractions of intestine preparations: inhibition
[11]
  contraction of longitudinal body wall muscle: tonic contraction

## PFCNAFTGC-NH2 [CCAP, 9-residue neuropeptide first discovered in the crustacean Carcinus maenas]
[12]
  cardioexcitatory effect: cardioexcitatory
[13]
  gut contraction and secretion of digestive enzymes: stimulation of gut contraction and secretion of digestive enzymes
[14]
  oviduct contractions: induction of oviduct contractions
[15]
  ecdysis motor program: activates an ecdysis motor program
[16]
  locomotor activity: inhibition of locomotor activity

## SFRNGVGTGMKKTSFQRAKS [NPS, 20-residue neuropeptide first discovered in rodents]
[17]
  food intake (inhibition): inhibition of food intake
[18]
  wakefulness: increases wakefulness
[19]
  food intake (increase, one study): increase food intake
[20]
  ligand of GPR154: endogenous ligand
[21]; mice exposed to stressful conditions
  anxiolytic-like effects: anxiolytic-like effects
[21]
  locomotor activity: increases locomotor activity
